Measurements from patent US20190211317A1, “PEPTIDES AND NANOPARTICLES FOR INTRACELLULAR DELIVERY OF GENOME-EDITING MOLECULES” (Aadigen, LLC, priority 2016, published 2019).

Tests used:
Format in all cases: cell-based
[1] = system: HPRT gene in mouse muscle myoblast cells (C2C12); experiment: HPRT gene editing in C2C12 myoblasts (T7E1 assay)
Procedure: […] Delivery by RNAiMAX was included as a positive control.
CAS9-induced NHEJ was analyzed 72 hours after transfection by PCR (FIG. 26) and T7E1 assay (FIG. 27). The deletion (indel) frequencies in the HPRT gene were quantified using a T7E1 assay by quantifying the amount of uncut vs cut DNA using a Fragment Analyzer System. Data for on-target mutations induced by RGEN/gRNA are reported as an average of 3 separate experiments
The cell line was maintained in 5% CO2 at 37° C. and cell viability was assessed by the Trypan Blue exclusion test. To induce myogenic differentiation, at about 80% cell confluence the medium containing 10% fetal calf serum was substituted with medium containing 1% fetal calf serum. The cells were transfected at the undifferentiated stage or at day 7 after differentiation.

[2] = system: endogenous EMX1, AAVS and HPRT genes in U2OS and Human (H9) embryonic stem cells; experiment: Delivery of multiple RGEN:gRNA complexes: EMX1, AAVS, HPRT editing in U2OS and H9 ES cells (T7E1)
Procedure: (§1) RNAiMAX delivery method was used as a positive control.
(§2) U2OS cells were treated as described previously. H9 embryonic stem cells were cultured in Dulbecco's modified Eagle's medium with 4 mM L-glutamine adjusted to contain 1.5 g/L sodium bicarbonate and 4.5 g/L glucose and supplemented with 0.1 mM 2-mercaptoethanol, 85%; and 15% ES-Cell Qualified fetal bovine serum. […] CAS9-induced double-strand break formation followed by repair through NHEJ was analyzed 72 hr after transfection by T7E1 assay and quantified using Fragment Analyzer System. The deletion (indel) frequencies in EMX1, AAVS and HPRT genes were quantified using T7E1 assay. Data for on-target mutations induced by RGEN:gRNA are reported as an average of 3 separate experiments.

[3] = system: endogenous EMX1, AAVS and HPRT genes in Mouse (ESF-158) embryonic stem cells; experiment: Delivery of multiple RGEN:gRNA complexes: EMX1, AAVS, HPRT editing in mouse ES cells (T7E1)
Procedure: as §1, §2

CC(C)C[C@H](NC(=O)[C@H](CCCNC(=N)N)NC(=O)[C@H](Cc1c[nH]c2ccccc12)NC(=O)[C@H](CCCNC(=N)N)NC(=O)[C@H](Cc1c[nH]c2ccccc12)NC(=O)CNC(=O)[C@H](C)NC(=O)[C@H](CO)NC(=O)[C@H](CCCNC(=N)N)NC(=O)[C@H](Cc1c[nH]c2ccccc12)NC(=O)[C@H](CCCCN)NC(=O)CCN)C(=O)N[C@@H](Cc1c[nH]c2ccccc12)C(=O)N[C@@H](CCCNC(=N)N)C(=O)N[C@H](C(=O)N[C@@H](CCCNC(=N)N)C(=O)N[C@@H](CO)C(=O)N[C@@H](Cc1c[nH]c2ccccc12)C(=O)N[C@@H](CO)C(=O)N[C@@H](CCCNC(=N)N)C(=O)O)C(C)C [ADGN-100a]
mean indel frequency ([1]; differentiated C2C12): 47% | mean indel frequency ([1]; undifferentiated C2C12, 5 μg/10 μg CAS9/gRNA, 20:1): 79% | Mean indel Frequency ± S.E.M ([2]; H9, AAVS): 60 ± 5% | Mean indel Frequency ± S.E.M ([2]; H9, EMX1): 61 ± 6% | Mean indel Frequency ± S.E.M ([2]; H9, HPRT): 61 ± 5% | Mean indel Frequency ± S.E.M ([2]; U2OS, AAVS): 72 ± 4% | Mean indel Frequency ± S.E.M ([2]; U2OS, EMX1, 20 nM each complex): 78 ± 7% | Mean indel Frequency ± S.E.M ([2]; U2OS, HPRT): 78 ± 6% | Mean indel Frequency ± S.E.M ([3]; AAVS): 71 ± 5% | Mean indel Frequency ± S.E.M ([3]; EMX1): 75 ± 5% | Mean indel Frequency ± S.E.M ([3]; HPRT): 70 ± 4%
